Test results reported in ChEMBL document CHEMBL3885861, “Open TG-GATES”.

Organism: Rattus norvegicus
Assay: Open TG-GATES - Regimen: Daily Repeat
Assay type: toxicity, organism-based, Sprague-Dawley
Parameters: regimen Daily Repeat, gender Male, age 6 weeks
Conditions: in vivo, po, 10 mg/kg, route gavage, dose level Low; for APTT / Bas / Eos / Fbg / Hb / Ht / Lym / MCH / MCHC / MCV / Mono / Neu / PT / Plat / RBC / Ret / WBC: tissue Blood
[1] = 72 h, tissue Kidney, time 3 day
[2] = 72 h, tissue Plasma, time 3 day

For `NC(=O)N/N=C/c1ccc([N+](=O)[O-])o1` [NITROFURAZONE], the TERMINAL_BW (72 h, time 3 day) was 217.9 g, the APTT (72 h, time 3 day) was 14.6 s and the Bas (72 h, time 3 day) was 0.2%. The Eos (72 h, time 3 day) was 0.8%, the Fbg (72 h, time 3 day) was 265.6 mg/dL and the Hb (72 h, time 3 day) was 12.9 g/dL. The Ht (72 h, time 3 day) was 39.6%, the Lym (72 h, time 3 day) was 77.8% and the MCH (72 h, time 3 day) was 22.1 pg. The MCHC (72 h, time 3 day) was 32.6%, the MCV (72 h, time 3 day) was 67.8 fL and the Mono (72 h, time 3 day) was 3.2%. It also gave a Neu (72 h, time 3 day) of 17.8%, a PT (72 h, time 3 day) of 14.4 s and a Plat (72 h, time 3 day) of 118.7 x10_4/uL. It also gave an RBC (72 h, time 3 day) of 584.8 x10_4/ul, a Ret (72 h, time 3 day) of 9.3% and a WBC (72 h, time 3 day) of 97.1 x10_2/uL. The KIDNEY_L [1] was 1 g, the KIDNEY_R [1] was 1 g and the KIDNEY_TOTAL [1] was 1.9 g. The LIVER (72 h, tissue Liver, time 3 day) was 10.7 g, the A/G [2] was 0.9 and the ALP [2] was 1665.4 IU/L. It also gave an ALT [2] of 49 IU/L, an AST [2] of 74.6 IU/L and a BUN [2] of 15 mg/dL. It also gave a CRE [2] of 0.2 mg/dL, a Ca [2] of 11.3 mg/dL and a Cl [2] of 105.6 meq/L. For the same compound, the DBIL [2] was 0.018 mg/dL, the GLC [2] was 189 mg/dL and the IP [2] was 7.9 mg/dL. For the same compound, the K [2] was 4.3 meq/L, the LDH [2] was 69.6 IU/L and the Na [2] was 141.4 meq/L. For the same compound, the PL [2] was 151.8 mg/dL, the RALB [2] was 2.6 g/dL and the TBIL [2] was 0.048 mg/dL. It also gave a TC [2] of 85 mg/dL, a TG [2] of 97.8 mg/dL and a TP [2] of 5.5 g/dL. For the same compound, the gamma-GTP [2] was 1 IU/L, the TERMINAL_BW ([…], time 7 day) was 257.3 g and the TERMINAL_BW ([…], time 14 day) was 318.7 g. The TERMINAL_BW ([…], time 28 day) was 442.9 g, the APTT ([…], time 7 day) was 16.7 s and the Bas ([…], time 7 day) was 0%. For the same compound, the Eos ([…], time 7 day) was 1%, the Fbg ([…], time 7 day) was 257 mg/dL and the Hb ([…], time 7 day) was 13.2 g/dL. It also gave a Ht ([…], time 7 day) of 39.3%, a Lym ([…], time 7 day) of 79.2% and an MCH ([…], time 7 day) of 21.5 pg. The MCHC ([…], time 7 day) was 33.7%, the MCV ([…], time 7 day) was 64 fL and the Mono ([…], time 7 day) was 2.4%. For the same compound, the Neu ([…], time 7 day) was 16.6%, the PT ([…], time 7 day) was 14.3 s and the Plat ([…], time 7 day) was 113.7 x10_4/uL. For the same compound, the RBC ([…], time 7 day) was 615 x10_4/ul, the Ret ([…], time 7 day) was 7.1% and the WBC ([…], time 7 day) was 83.6 x10_2/uL. It also gave an APTT ([…], time 14 day) of 15.2 s, a Bas ([…], time 14 day) of 0.2% and an Eos ([…], time 14 day) of 0.8%. The Fbg ([…], time 14 day) was 353 mg/dL, the Hb ([…], time 14 day) was 13.5 g/dL and the Ht ([…], time 14 day) was 40.9%. For the same compound, the Lym ([…], time 14 day) was 80%, the MCH ([…], time 14 day) was 20.2 pg and the MCHC ([…], time 14 day) was 33%. The MCV ([…], time 14 day) was 61.3 fL, the Mono ([…], time 14 day) was 2% and the Neu ([…], time 14 day) was 14.4%. For the same compound, the PT ([…], time 14 day) was 14.7 s, the Plat ([…], time 14 day) was 111.7 x10_4/uL and the RBC ([…], time 14 day) was 666.6 x10_4/ul. For the same compound, the Ret ([…], time 14 day) was 4.5%, the WBC ([…], time 14 day) was 106.9 x10_2/uL and the APTT ([…], time 28 day) was 16.4 s. For the same compound, the Bas ([…], time 28 day) was 0%, the Eos ([…], time 28 day) was 1.4% and the Fbg ([…], time 28 day) was 292.6 mg/dL. The Hb ([…], time 28 day) was 14.7 g/dL and the Ht ([…], time 28 day) was 43.8%.
